Where two headings read alike, the source gives them in different places.
Tests used:
[1] = biological target: T1, human MTAP (Homo sapiens, UniProt Q13126); assay: Inhibition of human MTAP, continuous spectrophotometric assay; assay type: biochemical
T1 construct: made in house
T1 sequence (Q13126 1-283): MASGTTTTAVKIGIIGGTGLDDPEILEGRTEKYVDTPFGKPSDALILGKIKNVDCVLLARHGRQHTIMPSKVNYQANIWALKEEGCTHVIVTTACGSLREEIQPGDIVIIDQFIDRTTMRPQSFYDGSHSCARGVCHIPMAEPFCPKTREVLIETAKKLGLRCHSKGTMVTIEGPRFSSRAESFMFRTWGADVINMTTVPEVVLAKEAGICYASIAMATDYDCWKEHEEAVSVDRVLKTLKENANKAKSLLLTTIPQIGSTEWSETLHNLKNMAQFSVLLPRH
Source text: Continuous spectrophotometric assays are used to characterize the compounds of the invention and […] inhibition of MTAP.

[2] = biological target: T2, E. coli MTAN (Escherichia coli, UniProt P0AF12); assay: biochemical; assay type: biochemical
T2 construct: made in house
T2 sequence (P0AF12 whole entry): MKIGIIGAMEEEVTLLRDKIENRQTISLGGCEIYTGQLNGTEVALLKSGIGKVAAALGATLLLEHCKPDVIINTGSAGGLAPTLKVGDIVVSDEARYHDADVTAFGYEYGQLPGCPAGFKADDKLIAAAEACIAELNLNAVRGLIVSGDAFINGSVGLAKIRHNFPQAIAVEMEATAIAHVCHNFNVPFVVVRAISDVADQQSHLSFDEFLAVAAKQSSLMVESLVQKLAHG
Procedure: After removal of cell debris by centrifugation, the soluble cell lysates are loaded onto nickel-charged chelating Sepharose (GE Healthcare) and washed with lysis buffer containing 20-150 mM imidazole. The 6His-MTANs are eluted in 250 mM imidazole, desalted using a Sephadex G-15 (GE Healthcare) gel filtration column, equilibrated with low salt buffer (100 mM HEPES, 30 mM KCL, pH 7.6) and concentrated to 40 mg/mL.
Briefly, all experiments are carried out at 25° C., in 1 mL total reaction volume containing 100 mM HEPES buffer, pH 7.5 and 50 mM KCl with 5′-deoxymethylthioadenosine (MTA) as substrate. […] For measuring dissociation constant (Kd) of inhibitors, a xanthine oxidase-coupled assay is carried out. […] Control experiments are carried out in the absence of either inhibitor or MTAN.
[formula] where vs^t and vs are steady state rates in the presence, and absence of inhibitor, respectively; Km is substrate Michaelis constant which is obtained as described above; [S] and [I] are the concentrations of the substrate MTA and inhibitor, respectively. If the concentration of inhibitor is smaller than 10-fold concentration of enzymes, the following correction is then applied: r=I′−(1−v0′/v0)Et
All data fitting is carried out with KaleidaGraph™ ver. 3.5 (Synergy Software).

[3] = 25° C., pH 7.5, MTA as substrate, read-out: Inhibition (Ki) E. coli MTAN
[4] = read-out: Inhibition (Ki) Human MTAP

SMILES	Ki [1] [nM]	also measured
Nc1ncnc2c(CN3C[C@@H](O)[C@H](c4ccccc4)C3)c[nH]c12 (racemic) [Example 1, (±)-trans-1-[(9-Deaza-adenin-9-yl)methyl]-3-hydroxy-4-phenylpyrrolidine]	4.3 ± 0.6	–
Nc1ncnc2c(CN3C[C@@H](CC4CCCCC4)[C@H](O)C3)c[nH]c12 (racemic) [Example 2, (±)-trans-4-(Cyclohexylmethyl)-1-[(9-deaza-adenin-9-yl)methyl]-3-hydroxy-pyrrolidine]	> 5000	–
Nc1ncnc2c(CN3C[C@@H](O)[C@H](C4CC4)C3)c[nH]c12 (racemic) [Example 4, (±)-trans-4-Cyclopropyl-1-[(9-deaza-adenin-9-yl)methyl]-3-hydroxypyrrolidine]	5.8 ± 0.7	–
C=C[C@@H]1CN(Cc2c[nH]c3c(N)ncnc23)C[C@H]1O (racemic) [Example 5, (±)-trans-1-[(9-Deaza-adenin-9-yl)methyl]-3-hydroxy-4-vinylpyrrolidine]	8.7 ± 1	–
C=CC[C@@H]1CN(Cc2c[nH]c3c(N)ncnc23)C[C@H]1O (racemic) [Example 6, (±)-trans-4-Allyl-1-[(9-deaza-adenin-9-yl)methyl]-3-hydroxypyrrolidine]	14.3 ± 1.7	–
C#C[C@@H]1CN(Cc2c[nH]c3c(N)ncnc23)C[C@H]1O (racemic) [Example 7, (±)-3,4-trans-1-[(9-Deaza-adenin-9-yl)methyl]-4-ethynyl-3-hydroxypyrrolidine]	–	Ki [2, 3]: 0.39 ± 0.02 nM; Ki [1, 4]: 31 ± 3 nM
CCCC[C@@H]1CN(Cc2c[nH]c3c(N)ncnc23)C[C@H]1O (racemic) [Example 8, (±)-trans-1-[(9-Deaza-adenin-9-yl)methyl]-4-butyl-3-hydroxypyrrolidine]	> 5000	Ki [2, 3]: 0.051 ± 0.003 nM
CC(C)C[C@@H]1CN(Cc2c[nH]c3c(N)ncnc23)C[C@H]1O (racemic) [Example 9, (±)-trans-1-[(9-Deaza-adenin-9-yl)methyl]-3-hydroxy-4-isobutylpyrrolidine]	6 ± 0.4	–
CCC(CC)[C@@H]1CN(Cc2c[nH]c3c(N)ncnc23)C[C@H]1O (racemic) [Example 10, (±)-trans-1-[(9-Deaza-adenin-9-yl)methyl]-3-hydroxy-4-(pent-3-yl)pyrrolidine]	> 5000	Ki [2]: 0.7 ± 0.1 nM
CC[C@@H]1CN(Cc2c[nH]c3c(N)ncnc23)C[C@H]1O (racemic) [Example 11, (±)-trans-1-[(9-Deaza-adenin-9-yl)methyl]-4-ethyl-3-hydroxypyrrolidine]	8.6 ± 1	Ki [2]: 0.31 ± 0.02 nM
Nc1ncnc2c(CN3C[C@@H](O)[C@H](C4CCCC4)C3)c[nH]c12 (racemic) [Example 13, (±)-trans-4-Cyclopentyl-1-[(9-deaza-adenin-9-yl)methyl]-3-hydroxypyrrolidine]	2.4 ± 0.4	–
Nc1ncnc2c(CN3C[C@@H](O)[C@H](c4cn(Cc5ccccc5)nn4)C3)c[nH]c12 (racemic) [Example 14, (±)-trans-4-(1-Benzyl-1H-1,2,3-triazol-4-yl)-1[(9-deaza-adenin-9-yl)methyl]-3-hydroxypyrrolidine]	–	Inhibition of Human MTAP ([1]; at 2.5 μM): ^a (indicates no inhibition observed at 2.5 μM)
Nc1ncnc2c(CN3C[C@@H](O)[C@H](c4c[nH]nn4)C3)c[nH]c12 (racemic) [Example 15, (±)-trans-1-[(9-Deaza-adenin-9-yl)methyl]-3-hydroxy-4-(1H-1,2,3-triazol-4-yl)pyrrolidine]	–	Ki [2, 3]: 2 ± 0.2 nM; Ki [1, 4]: 59 ± 8 nM
Nc1ncnc2c(CN3C[C@@H](CCCSCc4ccccc4)[C@H](O)C3)c[nH]c12 (racemic) [Example 16, (±)-trans-4-[3-(Benzylthio)propyl]-1-[(9-deaza-adenin-9-yl)methyl]-3-hydroxypyrrolidine]	71 ± 5	Selectivity for bacterial MTAN [2]: some selectivity for bacterial MTAN
CC[C@H]1CN(Cc2c[nH]c3c(N)ncnc23)C[C@H]1O (racemic) [Example 18, (±)-cis-1-[(9-Deaza-adenin-9-yl)methyl]-4-ethyl-3-hydroxypyrrolidine]	34 ± 3	Ki [2, 3]: 1.8 ± 0.3 nM
CC[C@H]1CN(Cc2c[nH]c3c(N)ncnc23)C[C@@H]1O [Example 12]	> 5000	–
CCCC[C@H]1CN(Cc2c[nH]c3c(N)ncnc23)C[C@@H]1O [Example 17, (3R,4S)-4-Butyl-1-[(9-deaza-adenin-9-yl)methyl]-3-hydroxypyrrolidine]	–	Ki [1, 4]: 0.55 ± 0.07 nM
